According to ChEMBL document CHEMBL6083209, “Pyridazinone-based derivatives as anticancer agents endowed with anti-microbial activity: molecular design, synthesis, and biological investigation” (RSC Med Chem, 2024):
Converted amounts (≈) assume the structure as drawn.

How the values were obtained:
Candida albicans = test: Antimicrobial activity against Candida albicans ATCC 10231 by broth microdilution method
Staphylococcus aureus = test: Antimicrobial activity against Staphylococcus aureus ATCC 29213 by broth microdilution method
Escherichia coli = test: Antimicrobial activity against Escherichia coli ATCC 25922 by broth microdilution method

| SMILES | MIC (Candida albicans) [µg/mL] | MIC (Staphylococcus aureus) [µg/mL] | MIC (Escherichia coli) [µg/mL] |
| --- | --- | --- | --- |
| O=C(NC(=S)Nc1ccc(-c2ccc(=O)[nH]n2)cc1)c1ccc([N+](=O)[O-])cc1 | 512 (≈ 1290 µM) | > 1020 | > 1020 |
| O=C(Nc1ccc(Br)cc1)Nc1ccc(-c2ccc(=O)[nH]n2)cc1 | 512 (≈ 1330 µM) | > 1020 | > 1020 |
| CNC(C)[C@@H]1CC[C@@H](N)[C@@H](O[C@H]2[C@H](O)[C@@H](O[C@H]3OC[C@](C)(O)[C@H](NC)[C@H]3O)[C@H](N)C[C@@H]2N)O1.CN[C@@H]1[C@@H](O)[C@@H](O[C@@H]2[C@@H](O)[C@H](O[C@H]3O[C@H](C(C)N)CC[C@H]3N)[C@@H](N)C[C@H]2N)OC[C@]1(C)O.CN[C@@H]1[C@@H](O)[C@@H](O[C@@H]2[C@@H](O)[C@H](O[C@H]3O[C@H](CN)CC[C@H]3N)[C@@H](N)C[C@H]2N)OC[C@]1(C)O (stereo partly specified) |  | 0.5 |  |
| O=C1CCC(c2ccc(NC(=S)NC(=O)c3ccc([N+](=O)[O-])cc3)cc2)=NN1 | 512 (≈ 1290 µM) | 512 (≈ 1290 µM) | 256 (≈ 644 µM) |
| O=C(NC(=S)Nc1ccc(/C=C/c2ccc(=O)[nH]n2)cc1)c1ccc(Cl)c(Cl)c1 | 512 (≈ 1150 µM) | 256 (≈ 575 µM) | 1020 (≈ 2300 µM) |
| O=C(NC(=S)Nc1ccc(-c2ccc(=O)[nH]n2)cc1)c1ccc(F)cc1 | 512 (≈ 1390 µM) | 256 (≈ 695 µM) | 256 (≈ 695 µM) |
| O=c1ccc(/C=C/c2ccc(NS(=O)(=O)c3cccc(Br)c3)cc2)n[nH]1 | 512 (≈ 1180 µM) | 1020 (≈ 2370 µM) | 512 (≈ 1180 µM) |
| O=C(NC(=S)Nc1ccc(/C=C/c2ccc(=O)[nH]n2)cc1)c1cccc(Br)c1 | 512 (≈ 1120 µM) | 1020 (≈ 2250 µM) | 256 (≈ 562 µM) |
| O=C(NC(=S)Nc1ccc(-c2ccc(=O)[nH]n2)cc1)c1ccc(Cl)cc1 | 512 (≈ 1330 µM) | 256 (≈ 665 µM) | 512 (≈ 1330 µM) |
| O=C1CCC(c2ccc(NC(=S)NC(=O)c3ccccc3)cc2)=NN1 | 512 (≈ 1450 µM) | 512 (≈ 1450 µM) | 256 (≈ 726 µM) |
| O=c1ccc(-c2ccc(NS(=O)(=O)c3cccc(Cl)c3)cc2)n[nH]1 | 256 (≈ 708 µM) | 256 (≈ 708 µM) | 1020 (≈ 2830 µM) |
| O=c1ccc(-c2ccc(NC(=S)Nc3cccc(F)c3)cc2)n[nH]1 | 64 (≈ 188 µM) | 512 (≈ 1500 µM) | > 1020 |
| O=C(NC(=S)Nc1ccc(-c2ccc(=O)[nH]n2)cc1)c1ccc(Br)cc1 | 512 (≈ 1190 µM) | 128 (≈ 298 µM) | 128 (≈ 298 µM) |
| O=c1ccc(-c2ccc(NS(=O)(=O)c3ccc(Cl)cc3)cc2)n[nH]1 | 256 (≈ 708 µM) | 128 (≈ 354 µM) | 256 (≈ 708 µM) |
| O=C(NC(=S)Nc1ccc(-c2ccc(=O)[nH]n2)cc1)c1c(Cl)cc(Cl)cc1Cl | 512 (≈ 1130 µM) | 128 (≈ 282 µM) | 256 (≈ 564 µM) |
| CC(=O)N1CCN(c2ccc(OCC3COC(Cn4ccnc4)(c4ccc(Cl)cc4Cl)O3)cc2)CC1 (stereo unspecified) [KETOCONAZOLE] | 2 (≈ 3.76 µM) |  |  |

More lines, now with the values ahead:

| MIC (Candida albicans) [µg/mL] | MIC (Staphylococcus aureus) [µg/mL] | MIC (Escherichia coli) [µg/mL] | SMILES |
| --- | --- | --- | --- |
| 256 (≈ 638 µM) | 128 (≈ 319 µM) | 512 (≈ 1280 µM) | O=c1ccc(-c2ccc(NC(=S)Nc3ccc(Br)cc3)cc2)n[nH]1 |
| 512 (≈ 1460 µM) | 256 (≈ 731 µM) | 256 (≈ 731 µM) | O=C(NC(=S)Nc1ccc(-c2ccc(=O)[nH]n2)cc1)c1ccccc1 |
| 512 (≈ 1320 µM) | 512 (≈ 1320 µM) | 256 (≈ 662 µM) | O=C1CCC(c2ccc(NC(=S)NC(=O)c3ccc(Cl)cc3)cc2)=NN1 |
| 512 (≈ 1190 µM) | 16 (≈ 37.3 µM) | 256 (≈ 596 µM) | O=C(NC(=S)Nc1ccc(-c2ccc(=O)[nH]n2)cc1)c1cccc(Br)c1 |
| 512 (≈ 1210 µM) | 512 (≈ 1210 µM) | 512 (≈ 1210 µM) | O=c1ccc(/C=C/c2ccc(NS(=O)(=O)c3ccc(Cl)c(Cl)c3)cc2)n[nH]1 |
| > 1020 | 256 (≈ 789 µM) | 256 (≈ 789 µM) | O=C(Nc1ccc(F)cc1)Nc1ccc(-c2ccc(=O)[nH]n2)cc1 |
| 512 (≈ 1390 µM) | 128 (≈ 347 µM) | 256 (≈ 695 µM) | O=C(NC(=S)Nc1ccc(-c2ccc(=O)[nH]n2)cc1)c1cccc(F)c1 |
| 512 (≈ 1230 µM) | 128 (≈ 307 µM) | 512 (≈ 1230 µM) | O=c1ccc(/C=C/c2ccc(NC(=S)Nc3ccc(Cl)c(Cl)c3)cc2)n[nH]1 |
| 512 (≈ 1270 µM) | > 1020 | > 1020 | O=C(NC(=S)Nc1ccc(-c2ccc(=O)[nH]n2)cc1)c1ccc(Cl)c(F)c1 |
